Measured values as given in patent US11154514B2, “Quinic acid-modified nanoparticles and uses thereof” (Purdue Research Foundation, priority 2017, dated 2021).

Experiments:
E-selectin = target: T1, E-selectin (Homo sapiens, UniProt P16581); experiment: Competitive inhibition of QANP binding to activated HUVECs; format: cell-based; settings: pre-incubated 30 minutes, flow cytometry
T1 construct: TNF-α treatment induces the expression of E-selectin on HUVECs; endogenous in cells
T1 sequence (P16581 22-610): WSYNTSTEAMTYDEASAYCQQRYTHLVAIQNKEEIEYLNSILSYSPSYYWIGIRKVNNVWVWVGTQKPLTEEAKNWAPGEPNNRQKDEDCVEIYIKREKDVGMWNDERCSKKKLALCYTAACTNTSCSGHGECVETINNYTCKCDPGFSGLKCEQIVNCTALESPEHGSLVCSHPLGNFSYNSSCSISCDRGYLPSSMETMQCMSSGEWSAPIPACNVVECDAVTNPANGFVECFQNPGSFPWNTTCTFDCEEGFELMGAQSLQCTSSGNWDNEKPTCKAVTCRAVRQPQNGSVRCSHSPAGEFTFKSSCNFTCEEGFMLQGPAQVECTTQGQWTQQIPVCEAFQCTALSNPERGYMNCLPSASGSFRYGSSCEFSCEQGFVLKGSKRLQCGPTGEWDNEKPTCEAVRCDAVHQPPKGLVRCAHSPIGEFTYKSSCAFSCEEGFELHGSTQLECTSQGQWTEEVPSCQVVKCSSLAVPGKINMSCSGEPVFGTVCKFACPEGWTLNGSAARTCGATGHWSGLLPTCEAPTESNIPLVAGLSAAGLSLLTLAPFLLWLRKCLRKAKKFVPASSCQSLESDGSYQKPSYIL
Method: For flow cytometry, HUVECs were treated with NPs in the same way as above and gently washed with PBS twice to remove free or loosely bound NPs. The cells were then trypsinized, collected by centrifugation at 930×g for 5 minutes, resuspended in 0.2 mL of PBS at 0° C., and analyzed with an Accuri C6 flow cytometer (BD Biosciences, San Jose, Calif., USA) equipped with an FL-1 detector (λex/λem=488/525 nm). For competition assay, known concentrations of free QA-NH2 or E-selectin antibody were pre-incubated with HUVECs for 30 minutes, prior to the NP treatment and flow cytometry.

[1] = test system: subcutaneous MDA-MB-231 tumor xenografts; experiment: In vivo whole body imaging and ex vivo organ distribution; set-up: species or system female athymic nude mice; settings: tail vein, imaged over 24 hours
Method: All animal procedures were approved by the Purdue Animal Care and Use Committee, in compliance with the NIH guidelines for the care and use of laboratory animals. Female athymic nude mice ([…]) at the age of 6-7 weeks were purchased from Envigo (Indianapolis, Ind., USA) and acclimatized for 1 week prior to the procedure. Each mouse received 5×10^6 MDA-MB-231 cells in the flank of hind leg by subcutaneous injection. […] […] After 48 hours, mice were sacrificed, and tumors and major organs were retrieved and imaged with IVIS Lumina system. To quantify ICG content in each organ, tumor and major organs were homogenized in DMSO with a Tissue Master homogenizer (Omni International, Kennesaw, Ga., USA). The organ homogenates were centrifuged, and 0.1 mL supernatant was sampled from each homogenate and analyzed with the IVIS Lumina system.

QANP binding to the activated HUVECs in presence of competitor (E-selectin)	Compound	tumor fluorescence (whole body imaging) [1]	whole body distribution and clearance [1]
reduced	Nc1cc(NC(=O)[C@]2(O)C[C@@H](O)[C@@H](O)[C@H](O)C2)cc(C(=O)O)c1 [QA-NH2, 3-amino-5-((1 S,3R,4S,5R)-1,3,4,5-tetrahydroxycyclohexane-1-carboxamido)benzoic Acid]		
	CC1(C)C(/C=C/C=C/C=C/C=C2\N(CCCCS(=O)(=O)O)c3ccc4ccccc4c3C2(C)C)=[N+](CCCCS(=O)(=O)[O-])c2ccc3ccccc3c21 [free ICG, indocyanine green]	did not show fluorescence in tumors at all time points	gradually cleared by hepatobiliary elimination
